Results on 8 compounds are retold here after patent US20210221866A1, “PROTEASE-RESISTANT LIPIDATED GLP-1 ANALOGS” (MEDIMMUNE LIMITED, priority 2015, published 2021).

The structures appear in SMILES notation. Where two headings read alike, the source gives them in different places. Numbered stars: 1 amine (or outer) side, 2 acyl side, 3 side chain; on linkers, the order of the positions; unused ones are H or OH. Square brackets hold non-standard residues; d marks the D form. Side chains are listed from the residue outwards. Peptide text beside a SMILES is read from it. * marks the point of attachment. C18 diacid = O=C(O)CCCCCCCCCCCCCCCCC(=O)*; γGlu = O=C(O)[C@H](CCC(=O)[*:2])N[*:1]; αMeF = C[C@](N)(Cc1ccccc1)C(=O)O; αMeK = C[C@](N)(CCCCN)C(=O)O; αMeS = C[C@](N)(CO)C(=O)O; AEEA = NCCOCCOCC(=O)O; Aib = CC(C)(N)C(=O)O

The experiment concerns the target T1, human GLP-1 receptor (GLP-1R) (Homo sapiens, UniProt P43220).
T1 construct: expressed in transfected cells; host or cells: HEK293 cells or CHO cells
Nature of the experiment: cAMP assay, human GLP-1R cells. It counts as cell-based. The conditions noted are these: cAMP activity. The protocol: Sample dilutions are made in duplicate.
A frozen cryo-vial of cells expressing the receptor of interest is thawed rapidly in a water-bath, transferred to pre-warmed assay buffer and spun at 240×g for 5 minutes. Cells are re-suspended in assay buffer at a batch-dependent optimized concentration (e.g. hGCGR cells at 2×10^5 cells/ml, hGLP-1R and hGIPR cells at 1×10^5 cells/ml).
To this, 5 μL cell suspension is added and the plates incubated at room temperature for 30 minutes.
cAMP levels are measured using a commercially available cAMP dynamic 2 HTRF kit (Cisbio, Cat #62AM4PEJ), following the two step protocol as per manufacturer's recommendations. In brief; anti-cAMP cryptate (donor fluorophore) and cAMP-d2 (acceptor fluorophore) are made up separately by diluting each 1/20 in conjugate & lysis buffer provided in the kit. 5 μL anti-cAMP cryptate is added to wells of the assay plate, and 5 μL cAMP-d2 is added to wells except non-specific binding (NSB) wells, to which conjugate and lysis buffer are added. […] EC50 values of the synthetic peptides determined in cAMP assays are then determined.
Data is transformed to % Delta F as described in the manufacturer's guidelines and analyzed by 4-parameter logistic fit to determine EC50 values. […] To compare the balance of activities at the GLP-1R and GCGR between different peptides and across different conditions, these can be correlated, where the EC50's are related to those of comparator peptides.

Where [1] appears, read: mean of n1 and n2, read-out: Mean pM GLP-1R.
Where [2] appears, read: second determination (n2), read-out: Primary assay EC50 GLP-1R n2.

T1 sequence (P43220 24-463): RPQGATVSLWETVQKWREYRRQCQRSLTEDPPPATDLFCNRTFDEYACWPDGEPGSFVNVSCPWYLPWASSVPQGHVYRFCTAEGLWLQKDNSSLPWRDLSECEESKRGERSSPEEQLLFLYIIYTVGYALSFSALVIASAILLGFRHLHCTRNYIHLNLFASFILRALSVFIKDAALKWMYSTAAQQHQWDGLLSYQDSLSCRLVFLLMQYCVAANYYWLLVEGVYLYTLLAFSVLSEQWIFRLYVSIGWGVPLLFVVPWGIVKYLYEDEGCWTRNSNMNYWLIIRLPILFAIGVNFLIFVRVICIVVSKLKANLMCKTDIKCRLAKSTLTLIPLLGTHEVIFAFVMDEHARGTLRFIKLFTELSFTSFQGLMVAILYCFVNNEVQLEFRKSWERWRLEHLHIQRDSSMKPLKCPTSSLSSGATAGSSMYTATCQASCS

For `CC[C@H](C)[C@H](NC(=O)[C@](C)(Cc1ccccc1)NC(=O)[C@H](CCC(=O)O)NC(=O)[C@H](CCCCNC(=O)COCCOCCNC(=O)COCCOCCNC(=O)CC[C@H](NC(=O)CCCCCCCCCCCCCCC(=O)O)C(=O)O)NC(=O)[C@H](C)NC(=O)[C@H](C)NC(=O)[C@H](CCC(=O)O)NC(=O)CNC(=O)[C@H](CCC(=O)O)NC(=O)[C@H](CC(C)C)NC(=O)[C@](C)(Cc1ccccc1)NC(=O)[C@H](CO)NC(=O)[C@](C)(CO)NC(=O)[C@@H](NC(=O)[C@H](CC(=O)O)NC(=O)[C@H](CO)NC(=O)[C@@H](NC(=O)[C@](C)(Cc1ccccc1)NC(=O)[C@H](CO)NC(=O)CNC(=O)[C@H](CCC(=O)O)NC(=O)C(C)(C)NC(=O)[C@@H](N)Cc1c[nH]cn1)[C@@H](C)O)C(C)C)C(=O)N[C@@H](C)C(=O)N[C@@](C)(Cc1ccccc1)C(=O)N[C@H](C(=O)N[C@H](C(=O)N[C@@](C)(CCCCN)C(=O)NCC(=O)NCC(N)=O)C(C)C)C(C)C` [compound 109], the EC50 by setting is: under setting [1], 34 pM; under setting [2], 34.6 pM.
On to `CC[C@H](C)[C@H](NC(=O)[C@](C)(Cc1ccccc1)NC(=O)[C@H](CCC(=O)O)NC(=O)[C@](C)(CCCCN)NC(=O)[C@H](CCCCNC(=O)COCCOCCNC(=O)COCCOCCNC(=O)CC[C@H](NC(=O)CCCCCCCCCCCCCCCCC(=O)O)C(=O)O)NC(=O)[C@H](C)NC(=O)[C@H](CCC(=O)O)NC(=O)CNC(=O)[C@H](CCC(=O)O)NC(=O)[C@H](CC(C)C)NC(=O)[C@](C)(Cc1ccccc1)NC(=O)[C@H](CO)NC(=O)[C@](C)(CO)NC(=O)[C@@H](NC(=O)[C@H](CC(=O)O)NC(=O)[C@H](CO)NC(=O)[C@@H](NC(=O)[C@](C)(Cc1ccccc1)NC(=O)[C@H](CO)NC(=O)CNC(=O)[C@H](CCC(=O)O)NC(=O)C(C)(C)NC(=O)[C@@H](N)Cc1c[nH]cn1)[C@@H](C)O)C(C)C)C(=O)N[C@@H](C)C(=O)N[C@@](C)(Cc1ccccc1)C(=O)N[C@H](C(=O)N[C@H](C(=O)N[C@@](C)(CCCCN)C(=O)NCC(=O)NCC(N)=O)C(C)C)C(C)C` [compound 110] (H-H[Aib]EGS[αMeF]TSDV[αMeS]S[αMeF]LEGEAK([AEEA-AEEA-γGlu-C18 diacid])[αMeK]E[αMeF]IA[αMeF]VV[αMeK]GG-NH2; N-terminus assumed), for which, under setting [1], the EC50 worked out at 62 pM.
Turning to `CC[C@H](C)[C@H](NC(=O)[C@](C)(Cc1ccccc1)NC(=O)[C@H](CCC(=O)O)NC(=O)[C@](C)(CCCCN)NC(=O)[C@H](C)NC(=O)[C@H](CCCCNC(=O)COCCOCCNC(=O)COCCOCCNC(=O)CC[C@H](NC(=O)CCCCCCCCCCCCCCCCC(=O)O)C(=O)O)NC(=O)[C@H](CCC(=O)O)NC(=O)CNC(=O)[C@H](CCC(=O)O)NC(=O)[C@H](CC(C)C)NC(=O)[C@](C)(Cc1ccccc1)NC(=O)[C@H](CO)NC(=O)[C@](C)(CO)NC(=O)[C@@H](NC(=O)[C@H](CC(=O)O)NC(=O)[C@H](CO)NC(=O)[C@@H](NC(=O)[C@](C)(Cc1ccccc1)NC(=O)[C@H](CO)NC(=O)CNC(=O)[C@H](CCC(=O)O)NC(=O)C(C)(C)NC(=O)[C@@H](N)Cc1c[nH]cn1)[C@@H](C)O)C(C)C)C(=O)N[C@@H](C)C(=O)N[C@@](C)(Cc1ccccc1)C(=O)N[C@H](C(=O)N[C@H](C(=O)N[C@@](C)(CCCCN)C(=O)NCC(=O)NCC(N)=O)C(C)C)C(C)C` [compound 111] (H-H[Aib]EGS[αMeF]TSDV[αMeS]S[αMeF]LEGEK([AEEA-AEEA-γGlu-C18 diacid])A[αMeK]E[αMeF]IA[αMeF]VV[αMeK]GG-NH2; N-terminus assumed), under setting [1], the EC50 worked out at 17 pM.
For the compound `CC[C@H](C)[C@H](NC(=O)[C@](C)(Cc1ccccc1)NC(=O)[C@H](CCC(=O)O)NC(=O)[C@](C)(CCCCN)NC(=O)[C@H](C)NC(=O)[C@H](C)NC(=O)[C@H](CCCCNC(=O)COCCOCCNC(=O)COCCOCCNC(=O)CC[C@H](NC(=O)CCCCCCCCCCCCCCCCC(=O)O)C(=O)O)NC(=O)CNC(=O)[C@H](CCC(=O)O)NC(=O)[C@H](CC(C)C)NC(=O)[C@](C)(Cc1ccccc1)NC(=O)[C@H](CO)NC(=O)[C@](C)(CO)NC(=O)[C@@H](NC(=O)[C@H](CC(=O)O)NC(=O)[C@H](CO)NC(=O)[C@@H](NC(=O)[C@](C)(Cc1ccccc1)NC(=O)[C@H](CO)NC(=O)CNC(=O)[C@H](CCC(=O)O)NC(=O)C(C)(C)NC(=O)[C@@H](N)Cc1c[nH]cn1)[C@@H](C)O)C(C)C)C(=O)N[C@@H](C)C(=O)N[C@@](C)(Cc1ccccc1)C(=O)N[C@H](C(=O)N[C@H](C(=O)N[C@@](C)(CCCCN)C(=O)NCC(=O)NCC(N)=O)C(C)C)C(C)C` [compound 112] (H-H[Aib]EGS[αMeF]TSDV[αMeS]S[αMeF]LEGK([AEEA-AEEA-γGlu-C18 diacid])AA[αMeK]E[αMeF]IA[αMeF]VV[αMeK]GG-NH2; N-terminus assumed), the EC50 under setting [1] came to 6 pM.
As for `CC[C@H](C)[C@H](NC(=O)[C@](C)(Cc1ccccc1)NC(=O)[C@H](CCC(=O)O)NC(=O)[C@](C)(CCCCN)NC(=O)[C@H](C)NC(=O)[C@H](C)NC(=O)[C@H](CCC(=O)O)NC(=O)[C@H](CCCCNC(=O)COCCOCCNC(=O)COCCOCCNC(=O)CC[C@H](NC(=O)CCCCCCCCCCCCCCCCC(=O)O)C(=O)O)NC(=O)[C@H](CCC(=O)O)NC(=O)[C@H](CC(C)C)NC(=O)[C@](C)(Cc1ccccc1)NC(=O)[C@H](CO)NC(=O)[C@](C)(CO)NC(=O)[C@@H](NC(=O)[C@H](CC(=O)O)NC(=O)[C@H](CO)NC(=O)[C@@H](NC(=O)[C@](C)(Cc1ccccc1)NC(=O)[C@H](CO)NC(=O)CNC(=O)[C@H](CCC(=O)O)NC(=O)C(C)(C)NC(=O)[C@@H](N)Cc1c[nH]cn1)[C@@H](C)O)C(C)C)C(=O)N[C@@H](C)C(=O)N[C@@](C)(Cc1ccccc1)C(=O)N[C@H](C(=O)N[C@H](C(=O)N[C@@](C)(CCCCN)C(=O)NCC(=O)NCC(N)=O)C(C)C)C(C)C` [compound 113] (H-H[Aib]EGS[αMeF]TSDV[αMeS]S[αMeF]LEK([AEEA-AEEA-γGlu-C18 diacid])EAA[αMeK]E[αMeF]IA[αMeF]VV[αMeK]GG-NH2; N-terminus assumed), the EC50 was determined as 18 pM under setting [1] and 17.4 pM under setting [2].
For `CC[C@H](C)[C@H](NC(=O)[C@](C)(Cc1ccccc1)NC(=O)[C@H](CCC(=O)O)NC(=O)[C@](C)(CCCCN)NC(=O)[C@H](C)NC(=O)[C@H](C)NC(=O)[C@H](CCC(=O)O)NC(=O)CNC(=O)[C@H](CCC(=O)O)NC(=O)[C@H](CC(C)C)NC(=O)[C@H](CCCCNC(=O)COCCOCCNC(=O)COCCOCCNC(=O)CC[C@H](NC(=O)CCCCCCCCCCCCCCCCC(=O)O)C(=O)O)NC(=O)[C@H](CO)NC(=O)[C@](C)(CO)NC(=O)[C@@H](NC(=O)[C@H](CC(=O)O)NC(=O)[C@H](CO)NC(=O)[C@@H](NC(=O)[C@](C)(Cc1ccccc1)NC(=O)[C@H](CO)NC(=O)CNC(=O)[C@H](CCC(=O)O)NC(=O)C(C)(C)NC(=O)[C@@H](N)Cc1c[nH]cn1)[C@@H](C)O)C(C)C)C(=O)N[C@@H](C)C(=O)N[C@@](C)(Cc1ccccc1)C(=O)N[C@H](C(=O)N[C@H](C(=O)N[C@@](C)(CCCCN)C(=O)NCC(=O)NCC(N)=O)C(C)C)C(C)C` [compound 116] the same measures were 9 pM and 9.12 pM.
As to `CCCCCCCCCCCC(=O)N[C@@H](CCC(=O)N[C@@H](CCC(=O)NCCCC[C@H](NC(=O)[C@H](C)NC(=O)[C@H](C)NC(=O)[C@H](CCC(=O)O)NC(=O)CNC(=O)[C@H](CCC(=O)O)NC(=O)[C@H](CC(C)C)NC(=O)[C@](C)(Cc1ccccc1)NC(=O)[C@H](CO)NC(=O)[C@](C)(CO)NC(=O)[C@@H](NC(=O)[C@H](CC(=O)O)NC(=O)[C@H](CO)NC(=O)[C@@H](NC(=O)[C@](C)(Cc1ccccc1)NC(=O)[C@H](CO)NC(=O)CNC(=O)[C@H](CCC(=O)O)NC(=O)C(C)(C)NC(=O)[C@@H](N)Cc1c[nH]cn1)[C@@H](C)O)C(C)C)C(=O)N[C@@H](CCC(=O)O)C(=O)N[C@@](C)(Cc1ccccc1)C(=O)N[C@H](C(=O)N[C@@H](C)C(=O)N[C@@](C)(Cc1ccccc1)C(=O)N[C@H](C(=O)N[C@H](C(=O)N[C@@](C)(CCCCN)C(=O)NCC(=O)NCC(N)=O)C(C)C)C(C)C)[C@@H](C)CC)C(=O)O)C(=O)O` [compound 129], the EC50 under setting [1] came out at 11.5 pM.
On the same count and under the same terms, the value for `CC[C@H](C)[C@H](NC(=O)[C@](C)(Cc1ccccc1)NC(=O)[C@H](CCC(=O)O)NC(=O)[C@H](CCCCNC(=O)CC[C@H](NC(=O)CC[C@H](NC(=O)CCCCCCCCCCCCCCCCC(=O)O)C(=O)O)C(=O)O)NC(=O)[C@H](C)NC(=O)[C@H](C)NC(=O)[C@H](CCC(=O)O)NC(=O)CNC(=O)[C@H](CCC(=O)O)NC(=O)[C@H](CC(C)C)NC(=O)[C@](C)(Cc1ccccc1)NC(=O)[C@H](CO)NC(=O)[C@](C)(CO)NC(=O)[C@@H](NC(=O)[C@H](CC(=O)O)NC(=O)[C@H](CO)NC(=O)[C@@H](NC(=O)[C@](C)(Cc1ccccc1)NC(=O)[C@H](CO)NC(=O)CNC(=O)[C@H](CCC(=O)O)NC(=O)C(C)(C)NC(=O)[C@@H](N)Cc1c[nH]cn1)[C@@H](C)O)C(C)C)C(=O)N[C@@H](C)C(=O)N[C@@](C)(Cc1ccccc1)C(=O)N[C@H](C(=O)N[C@H](C(=O)N[C@@](C)(CCCCN)C(=O)NCC(=O)NCC(N)=O)C(C)C)C(C)C` [compound 156] was 105 pM.
